Paper PMC11820944, “Safirinium Fluorescent “Click” Molecular Probes: Synthesis, CuAAC Reactions, and Microscopic Imaging” (Molecules, 2025)

Tests used:
[1] = Fluorescence emission spectra and quantum yields (comparative method); type: physicochemical; details: for λ Emission: 1·10^-6 mol/dm^3, 365 nm excitation; for Fluorescence Quantum Yield: against A1 standard
Method: Fluorescence spectra were recorded using a Hitachi F-70000 spectrofluorimeter (P VWR-Hitachi, Japan), for 1 × 10^−6 mol/dm^3 solutions of the compounds in water and acetonitrile, at 365 nm excitation wavelength, using 5 nm excitation and 2.5 nm emission slits, and 700 V photomultiplier voltage. The spectra (Figures S2 and S4) were recorded in 400–700 nm range. The 1 × 10^−6 mol/dm^3 solutions were prepared by 100-fold dilution of the solutions used for absorption measurement.
Quantum yields of fluorescence (Table 1) were determined using the comparative method, from Formula (1), using the recorded absorption and emission spectra and diethyl Safirinium P zwitterion A1 (ϕ = 0.755 in water) as standard.(1) Φ=ΦstdFAstdnstd2/FstdAn^2 where ϕ, ϕstd—quantum yields; F, Fstd—integrals under fluorescence emission curves; A, Astd—absorbance at excitation wavelength, and n, nstd—refractive indices, for the compound and standard (std subscript), respectively.

CHO-K1 cells = experiment: Cellular uptake and distribution by fluorescence (confocal) microscopy; type: cell-based, Chinese hamster; details: 10 µM, 30 min
Method: Figure 6 Cellular uptake and intracellular distribution of selected probes (1 and 6) and triazole derivatives (11, 12, 13, and 15) in Chinese hamster ovary cells. CHO-K1 cells were cultured overnight and then incubated with the tested compounds (10 μM). Representative images (100× magnification) illustrating intracellular distribution of the compounds in CHO-K1 cells were captured after 30 min of incubation with the tested compounds. Scale bar = 20 μm.
CHO-K1 cells were seeded at a density of 2 × 10^5/well in 12-well plates containing cover slips at the bottom and cells were incubated for 24 h. Then, cells were fixed in 3.7% formaldehyde in PBS for 10 min in 37 °C, washed twice with PBS, and stained with compound solution (10 µM) for 30 min. After this time, the cells were rinsed 2 times with Gibco FluoroBrite DMEM and a coverslip was placed on a stock carrier with drops of culture medium. Finally, slides were mounted in ProLong™ Glass Antifade Mountant and visualized under an A1 confocal system built on a Nikon Eclipse Ti-E microscope (Japan) equipped with 405 and 561 nm diode lasers and a Plan Apo 100×/1.4 Oil DIC objective.

[2] = Chemical stability of aqueous solution in daylight, RP-HPLC with fluorescence detection; type: physicochemical
Source text: To assess the chemical stability of Safirinium-based alkyne probes for RP-HPLC analysis, we developed a preliminary RP-HPLC method with fluorescent detection for the alkyne probe 1. This was accomplished using an LC-PCN column and a simple isocratic elution approach. Subsequently, we prepared a 10^−6 M aqueous solution of probe 1 and kept it exposed to natural daylight on a laboratory bench for 7 days. […] Assuming pseudo-first-order kinetics, it can be calculated that probe 1 can remain stable (95%) under such conditions for 12 h.
RP-HPLC analyses with fluorescence detection (Method B) were performed on a LaChrom Elite HPLC system, (VWR-Hitachi, Japan), equipped with a L-2130 pump, a L-2485 FL detector, a L-2350 column oven, and an L-2200 autosampler, the system was controlled with EZChrom Elite version 3.2, Agilent software. Separations were performed on a SUPELCOSIL LC-PCN 250 × 4.6 mm column with 5 µm grain size, under 1 mL/min isocratic elution with 50:50 v/v water: acetonitrile mixture, acidified with 0.1% formic acid. Injection volume was 20 µL; 10^−6 mol/dm^3 solution of probe 1 in water was prepared in a clear HPLC sample vial and analyzed directly after preparation and after 7 days (168 h) of standing on a lab bench, exposed to natural daylight at room temperature. Example chromatograms are presented in the electronic supporting information.

[3] = MTT cell viability assay, NIH-3T3 cells; type: cell-based; details: mouse, 24 h incubation, read-out: IC50 (cytotoxicity, cell viability)
Source text: (§1) CHO-K1 cell line was derived as a subclone from the parental CHO cell line, which was initiated from a biopsy of an ovary of an adult, female Chinese hamster commercially available in ATCC (CCL-61™). NIH-3T3 cell line was obtained from DSMZ, the German Collection of Microorganisms and Cell Cultures. CHO-K1 and NIH-3T3 cells were cultivated in F-12K Medium (ATCC 30-2004) and Dulbecco’s MEM with Glutamax™ 1 Medium (Gibco, Paisley, UK), respectively. Culture media were supplemented with fetal bovine serum (FBS, Gibco, Thermo Fisher Scientific, Waltham, MA, USA) to a final concentration of 10% and antibiotic to final concentration of 1% (pent/strept, Gibco, Thermo Fisher Scientific, Waltham, MA, USA). Cells were cultured in standard culture conditions (5% CO2, 37 °C, 95% humidity).
Cell viability was determined by the 3-(4,5-dimethylthiazol-2-yl)-2,5-diphenyltetrazolium bromide (MTT, Sigma Aldrich, Burlington, MA, USA) assay. Cells were seeded into 96-well plates at density of 2 × 10^4 cell/well and cultured in the presence of compounds (1–4, 6–9, 11–13, and 15) at concentration range 1.56–100 µM for 24 h. The MTT reagent (final concentration 0.5 mg/mL) was added to each well for 3 h, and then formazan crystals were dissolved in DMSO. The absorbance was measured at 570 nm (SpectraMax® iD3, Molecular Devices, San Jose, CA, USA) and the experiment was performed two times in duplicates. Cells viability was expressed as a percentage of viability (in comparison to non-treated cells normalized to 100%). Data were analyzed using GraphPad Prism Software (GraphPad Software, Inc., San Diego, CA, USA, version 10.3.1).

in vitro = type: cell-based; details: Chinese hamster
Source text: as §1
Cell viability was determined by the 3-(4,5-dimethylthiazol-2-yl)-2,5-diphenyltetrazolium bromide (MTT, Sigma Aldrich, Burlington, MA, USA) assay. […] The absorbance was measured at 570 nm (SpectraMax® iD3, Molecular Devices, San Jose, CA, USA) and the experiment was performed two times in duplicates. Cells viability was expressed as a percentage of viability (in comparison to non-treated cells normalized to 100%). Data were analyzed using GraphPad Prism Software (GraphPad Software, Inc., San Diego, CA, USA, version 10.3.1).

[4] = design: method as in PMID 23893376; details: in water; cited from earlier work

| SMILES | λ Emission ([1]; Acetonitrile) [nm] | Fluorescence Quantum Yield ([1]; Acetonitrile) | λ Emission ([1]; H2O) [nm] | Fluorescence Quantum Yield ([1]; H2O) | Cellular uptake and intracellular distribution (CHO-K1 cells) | IC50 at 24 h [3] [µM] | further results |
| --- | --- | --- | --- | --- | --- | --- | --- |
| C#CCNC(=O)C1=C(C)C=C(C)N2C[N+](CC)(CC)N=C12.[Br-] [Compound 1, 2,2-Diethyl-5,7-dimethyl-8-[(prop-2-yn-1-yl)carbamoyl]-2H,3H-[1,2,4]triazolo [4,3-a]pyridin-2-ium bromide] | 443 | 0.86 | 446 | 1.00 | capable of entering the cytoplasm of the cells; however, they did not penetrate the nuclei | – | half-life ([2]; 10^-6 M aqueous solution exposed to natural daylight): ~168 h; RP-HPLC peak area decrease ([2]; 10^-6 M aqueous solution, natural daylight, room temperature, 7 days): 50%; Time of remaining stable (95%) ([2]; aqueous solution exposed to daylight, assuming pseudo-first-order kinetics): 12 h |
| C#CCNC(=O)C1=C(C)C=C(C)N2C[N+](CCCCCCCC)(CCCCCCCC)N=C12 [Compound 2, 5,7-Dimethyl-2,2-dioctyl-8-(prop-2-yn-1-ylcarbamoyl)-2,3-dihydro-[1,2,4]triazolo[4,3-a]pyridin-2-ium bromide] | – | – | – | – | – | 17.5 | – |
| C#CCNC(=O)C1=Cc2ccccc2N2C[N+](CC)(CC)N=C12.[Br-] [Compound 3, 2,2-Diethyl-4-(prop-2-yn-1-ylcarbamoyl)-1,2-dihydro-[1,2,4]triazolo[4,3-a]quinolin-2-ium bromide] | 455 | 0.71 | 462 | 0.62 | – | – | – |
| C#CCNC(=O)C1=Cc2ccccc2N2C[N+](CCCCCCCC)(CCCCCCCC)N=C12 [Compound 4, 2,2-Dioctyl-4-(prop-2-yn-1-ylcarbamoyl)-1,2-dihydro-[1,2,4]triazolo[4,3-a]quinolin-2-ium bromide] | – | – | – | – | – | 8.7 | IC50 at 24 h (in vitro): 17.3 µM |
| CC[N+]1(CC)CN2C(C)=CC(C)=C(C(=O)NCCCCCN=[N+]=[N-])C2=N1.[Br-] [Compound 6, 8-((5-Azidopentyl)carbamoyl)-2,2-diethyl-5,7-dimethyl-2,3-dihydro-[1,2,4]triazolo[4,3-a]pyridin-2-ium bromide] | – | – | – | – | capable of entering the cytoplasm of the cells; however, they did not penetrate the nuclei | – | – |
| CCCCCCCC[N+]1(CCCCCCCC)CN2C(C)=CC(C)=C(C(=O)NCCCCCN=[N+]=[N-])C2=N1 [Compound 7, 8-((5-Azidopentyl)carbamoyl)-5,7-dimethyl-2,2-dioctyl-2,3-dihydro-[1,2,4]triazolo[4,3-a]pyridin-2-ium bromide] | – | – | – | – | – | 26.4 | – |
| CC[N+]1(CC)CN2C(=N1)C(C(=O)NCCCCCN=[N+]=[N-])=Cc1ccccc12.[Br-] [Compound 8, 4-((5-Azidopentyl)carbamoyl)-2,2-diethyl-1,2-dihydro-[1,2,4]triazolo[4,3-a]quinolin-2-ium bromide] | 452 | 0.68 | 459 | 0.60 | – | – | – |
| CCCCCCCC[N+]1(CCCCCCCC)CN2C(=N1)C(C(=O)NCCCCCN=[N+]=[N-])=Cc1ccccc12 [Compound 9, 4-((5-Azidopentyl)carbamoyl)-2,2-dioctyl-1,2-dihydro-[1,2,4]triazolo[4,3-a]quinolin-2-ium bromide] | – | – | – | – | – | 13 | IC50 at 24 h (in vitro): 11 µM |
| CCCCCCCCCCCCCCn1cc(CNC(=O)C2=C(C)C=C(C)N3C[N+](CC)(CC)N=C23)nn1.[Br-] [Compound 11, 2,2-Diethyl-5,7-dimethyl-8-(((1-tetradecyl-1H-1,2,3-triazol-4-yl)methyl)carbamoyl)-2,3-dihydro-[1,2,4]triazolo[4,3-a]pyridin-2-ium bromide] | 443 | 0.86 | 446 | 0.28 | capable of entering the cytoplasm of the cells; however, they did not penetrate the nuclei | – | – |
| CC[N+]1(CC)CN2C(=N1)C(C(=O)NCc1cn(C3O[C@H](COC(C)=O)[C@@H](OC(C)=O)[C@H](OC(C)=O)[C@H]3OC(C)=O)nn1)=Cc1ccccc12.[Br-] (stereo partly drawn) [Compound 12, 2,2-Diethyl-4-(((1-((3R,4S,5R,6R)-3,4,5-triacetoxy-6-(acetoxymethyl)tetrahydro-2H-pyran-2-yl)-1H-1,2,3-triazol-4-yl)methyl)carbamoyl)-1,2-dihydro-[1,2,4]triazolo[4,3-a]quinolin-2-ium bromide] | – | – | – | – | capable of entering the cytoplasm of the cells; however, they did not penetrate the nuclei | – | – |
| CC[N+]1(CC)CN2C(=N1)C(C(=O)NCc1cn(C3CC(n4cc(C)c(=O)[nH]c4=O)OC3CO)nn1)=Cc1ccccc12 (stereo not shown) [Compound 13, 4-(((1-((2-(hydroxymethyl)-5-(5-methyl-2,4-dioxo-1,2,3,4-tetrahydropyrimidin-1-yl)oxolan-3-yl)-1H-1,2,3-triazol-4-yl)methyl)carbamoyl)-2,2-diethyl-1,2-dihydro-[1,2,4]triazolo[4,3-a]quinolin-2-ium bromide] | 452 | 0.45 | 462 | 0.59 | capable of entering the cytoplasm of the cells; however, they did not penetrate the nuclei | – | – |
| CC[N+]1(CC)CN2C(=N1)C(C(=O)NCCCCCn1cc(CO)nn1)=Cc1ccccc12.[Br-] [Compound 15, 2,2-Diethyl-4-({5-[4-(hydroxymethyl)-1H-1,2,3-triazol-1-yl]pentyl}carbamoyl)-1H,2H-[1,2,4]triazolo[4,3-a]quinolin-2-ium bromide] | 454 | 0.53 | 459 | 0.55 | capable of entering the cytoplasm of the cells; however, they did not penetrate the nuclei | – | – |
| CC[N+]1(CC)CN2C(C)=CC(C)=C(C(=O)[O-])C2=N1 [Compound A1] | – | – | – | – | – | – | Fluorescence quantum yield (ϕ) of standard [4]: 0.755 |
